Source: patent US20230038360A1, “COMPOSITION FOR THE TREATMENT OF AMYLOID-BETA ASSOCIATED DISEASES” (BASF SE, priority 2019, published 2023)

Test system: C. elegans strain CL4176 expressing amyloid-beta peptide in muscle cells
Experiment: Paralysis assay in transgenic C. elegans strain CL4176 expressing human Aβ1-42 peptide in muscle cells
Format: in vivo
Settings: 1 mg/ml sodium propionate in nematode growth medium; after 24 hours; Aβ1-42 expression induced by temperature control
Description: The biological model C. elegans was used to study the effects of sodium propionate on amyloid-beta associated pathology. C. elegans has become an excellent and well recognized model for studying neurodegenerative diseases (Zhou et al., 2011; Hekimi et al., 2011; Kaletsky & Murphy, 2010). This nematode contains 302 neuron cells with neurotransmitters and neuropeptides similar to the mammalian nervous system. All the basic functions in the worm such as development, feeding and movement are controlled by the nervous system. The model is particularly useful for studying amyloid-beta associated pathologies, since transgenic strains have been generated able to express the human Aβ1-42 peptide in muscle cells, producing a progressive paralysis in the nematodes as a result of toxic effects (Link, 1995). Therefore, this model using such strains is useful to study substances in view of their ability to reduce β-amyloid peptide cell toxicity.
In the present experiment, the transgenic C. elegans strain CL4176 expressing amyloid-beta peptide in muscle cells was used. The worms were cultured in plates with nematode growth medium (control) or in plates supplemented with different concentrations of sodium propionate (test substance). The expression of Aβ1-42 peptide was induced in the nematodes by temperature control, and the percentage of worms paralyzed was determined at different time points. […]

CCC(=O)[O-].[Na+] [sodium propionate]
number of paralyzed C. elegans compared to the untreated Aβ1-42 peptide expressing C. elegans: significantly lower
